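1) Cells in 96-well plates. 2) Compound, 48 h, 5 concentrations. 3) Linear interpolation between surrounding doses. 4) Unreached endpoint = highest concentration. Here, GI50 denotes the concentration required for 50% inhibition of growth.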 Active and inactive are the calls of the source. Rule as the data show it: active = GI50 up to about 1.1 µM and inactive = higher.
What was measured:
Assay in all cases: inhibition of tumour cell growth, NCI panel, 48 h
A498 = system: A498
BT-549 = system: BT-549
HCC 2998 = system: HCC 2998
HCT-116 = system: HCT-116
HCT-15 = system: HCT-15
LOX IMVI = system: LOX IMVI
M14 = system: M14
MDA-MB-231 = system: MDA-MB-231
MOLT-4 = system: MOLT-4
NCI-H23 = system: NCI-H23
OVCAR-5 = system: OVCAR-5
PC-3 = system: PC-3
RPMI-8226 = system: RPMI-8226
SF-268 = system: SF-268
SF-295 = system: SF-295
SK-MEL-2 = system: SK-MEL-2
SR = system: SR
SW-620 = system: SW-620
TK-10 = system: TK-10
UACC-257 = system: UACC-257

SMILES | GI50 (A498) | GI50 (BT-549) | GI50 (HCC 2998) | GI50 (HCT-116) | GI50 (HCT-15) [µM] | GI50 (LOX IMVI) | GI50 (M14) | GI50 (MDA-MB-231) | GI50 (MOLT-4) | GI50 (NCI-H23) | GI50 (OVCAR-5) | GI50 (PC-3) | GI50 (RPMI-8226) | GI50 (SF-268) | GI50 (SF-295) | GI50 (SK-MEL-2) | GI50 (SR) | GI50 (SW-620) | GI50 (TK-10) | GI50 (UACC-257)
CCSC(=O)N1c2ccc(OC)cc2C=CC1C#N (stereo not given) | < 0.01 µM (active) | < 0.01 µM (active) | 0.00895 µM (active) | 0.000509 µM (active) | 0.00734 | 0.00424 µM (active) | 0.00601 µM (active) | 0.00589 µM (active) | 0.00345 µM (active) | 0.00509 µM (active) | < 0.00993 µM (active) | 0.00364 µM (active) | 0.00273 µM (active) | 0.00113 µM (active) | 0.00405 µM (active) | < 0.01 µM (active) | 0.000843 µM (active) | 0.00356 µM (active) | 0.00971 µM (active) | < 0.01 µM (active)
CN(C)c1ccc(C=c2c3ccccc3n3c2c2ccccc2[n+]3C)cc1 | 1.69 µM (inactive) | 0.274 µM (active) | 0.671 µM (active) | 0.354 µM (active) | 0.456 | 0.597 µM (active) | 0.493 µM (active) | 0.877 µM (active) | 0.493 µM (active) | 1.01 µM (active) | 3.02 µM (inactive) | 0.353 µM (active) | 0.138 µM (active) | 0.425 µM (active) | 1.52 µM (inactive) | 0.258 µM (active) | 0.199 µM (active) | 0.164 µM (active) | 1.2 µM (inactive) | 0.33 µM (active)
O=C1/C(=C/c2cccc([N+](=O)[O-])c2)N=C(c2ccccc2)N1c1nc2ccc(Sc3ccccc3)cc2[nH]1 | 87.7 µM (inactive) | 88.7 µM (inactive) | 67.6 µM (inactive) | 41.6 µM (inactive) | 35.6 | 38.5 µM (inactive) | 38.9 µM (inactive) | 93.1 µM (inactive) | 34.8 µM (inactive) | 46.6 µM (inactive) | > 100 µM (inactive) | 35.4 µM (inactive) | 33.3 µM (inactive) | 39 µM (inactive) | 35.7 µM (inactive) | 30.3 µM (inactive) | 24.8 µM (inactive) | 37.2 µM (inactive) | 71.4 µM (inactive) | 42 µM (inactive)
COc1ccc(OC)c(C2CCc3nc4nc(N)nc(N)c4cc3C2)c1 (stereo not given) | 12.7 µM (inactive) | 6.9 µM (inactive) | 1.74 µM (inactive) | 1.83 µM (inactive) | 14.1 | 3.12 µM (inactive) | 1.8 µM (inactive) | 2.35 µM (inactive) | 2.12 µM (inactive) | 18.5 µM (inactive) | 9.35 µM (inactive) | 3.56 µM (inactive) | 5.78 µM (inactive) | 2.96 µM (inactive) | 11.7 µM (inactive) | 1.97 µM (inactive) | 2.48 µM (inactive) | 2.86 µM (inactive) | 9.77 µM (inactive) | 2.48 µM (inactive)
O=C1/C(=C\c2ccccc2)c2ccccc2N1Cc1ccccc1 | > 10 µM (inactive) | 3.61 µM (inactive) | 11.8 µM (inactive) | 4.72 µM (inactive) | 9.46 | 7.45 µM (inactive) | 9.16 µM (inactive) | 6.89 µM (inactive) | 2.67 µM (inactive) | 10.7 µM (inactive) | 10.4 µM (inactive) | 11.1 µM (inactive) | 2.74 µM (inactive) | 9.25 µM (inactive) | 11.4 µM (inactive) | 12.2 µM (inactive) | 2.04 µM (inactive) | 9.84 µM (inactive) | 12.9 µM (inactive) | 10.9 µM (inactive)
Brc1ccc2c([C@H]3CN[C@@H](c4c[nH]c5cc(Br)ccc45)CN3)c[nH]c2c1 | 1.87 µM (inactive) | 12.3 µM (inactive) | 1.62 µM (inactive) | 1.66 µM (inactive) | 3.83 | 1.83 µM (inactive) | 2.24 µM (inactive) | 1.8 µM (inactive) | 2.29 µM (inactive) | 2.54 µM (inactive) | 4.95 µM (inactive) | 3.9 µM (inactive) | 2.48 µM (inactive) | 6.79 µM (inactive) | 7.1 µM (inactive) | 5.07 µM (inactive) | 2.27 µM (inactive) | 1.71 µM (inactive) | 7.33 µM (inactive) | 14.9 µM (inactive)
COc1ccc2c(c1)C(=O)CC1c3cnccc3C(=O)N21 (stereo not given) | > 100 µM (inactive) | > 100 µM (inactive) | > 86.1 µM (inactive) | > 73.6 µM (inactive) | > 100 | > 100 µM (inactive) | > 100 µM (inactive) | > 100 µM (inactive) | > 100 µM (inactive) | > 100 µM (inactive) | > 100 µM (inactive) | > 100 µM (inactive) | > 92 µM (inactive) | > 100 µM (inactive) | > 100 µM (inactive) | > 100 µM (inactive) | > 85.5 µM (inactive) | > 100 µM (inactive) | > 100 µM (inactive) | > 100 µM (inactive)
c1csc(-c2ccsc2-c2ccsc2)c1 | > 100 µM (inactive) | > 100 µM (inactive) | 28.3 µM (inactive) | 60.8 µM (inactive) | 39.8 | > 100 µM (inactive) | > 100 µM (inactive) | > 100 µM (inactive) | 28.4 µM (inactive) | 43.5 µM (inactive) | > 100 µM (inactive) | 41.3 µM (inactive) | 30.2 µM (inactive) | 92.5 µM (inactive) | 57.4 µM (inactive) | 17.5 µM (inactive) | 33.1 µM (inactive) | > 100 µM (inactive) | > 100 µM (inactive) | > 100 µM (inactive)
CO[C@H]1C=CO[C@@]2(C)Oc3c(C)c(O)c4c(O)c(c(CN5CCN(C)CC5)c(O)c4c3C2=O)NC(=O)/C(C)=C\C=C[C@H](C)[C@H](O)C(C)[C@@H](O)C(C)[C@H](OC(C)=O)[C@@H]1C (stereo not given in full) | > 100 µM (inactive) | 45.9 µM (inactive) | 44.4 µM (inactive) | 13.4 µM (inactive) | 30.8 | 14.3 µM (inactive) | 24.2 µM (inactive) | 34.4 µM (inactive) | 5.87 µM (inactive) | 14.6 µM (inactive) | > 100 µM (inactive) | 17 µM (inactive) | 4.62 µM (inactive) | 50.2 µM (inactive) | > 100 µM (inactive) | 41.8 µM (inactive) | 6.62 µM (inactive) | 13.1 µM (inactive) | 49.4 µM (inactive) | 21 µM (inactive)
CCOCC(=O)N[C@H]1CCc2cc(OC(=O)COCC)c(OC)c(OC)c2-c2ccc(SC)c(=O)cc21 | 0.0472 µM (active) | 0.0752 µM (active) | 0.0264 µM (active) | 0.0175 µM (active) | 0.0551 | 0.0303 µM (active) | 0.0256 µM (active) | 0.0274 µM (active) | 0.0269 µM (active) | 0.0273 µM (active) | 0.604 µM (active) | 0.0224 µM (active) | 0.0299 µM (active) | 0.0384 µM (active) | 0.0157 µM (active) | 0.019 µM (active) | 0.0159 µM (active) | 0.0171 µM (active) | 0.459 µM (active) | 0.00902 µM (active)
Cn1c2c3ccc(Cl)cc3nc-2c(Cl)c2ccccc21 | 19.9 µM (inactive) | 24.3 µM (inactive) | 5.38 µM (inactive) | 1.71 µM (inactive) | 14.7 | 13.3 µM (inactive) | 20.9 µM (inactive) | 23.7 µM (inactive) | 19 µM (inactive) | 13.4 µM (inactive) | 17.3 µM (inactive) | 13.7 µM (inactive) | 4.31 µM (inactive) | 14.2 µM (inactive) | 15.2 µM (inactive) | 21.4 µM (inactive) | 6.15 µM (inactive) | 11.9 µM (inactive) | 16.6 µM (inactive) | 17.5 µM (inactive)
Cn1c(SCc2c[nH]c3ccccc23)nnc1-c1ccc(Cl)cc1Cl | 16.3 µM (inactive) | 18.3 µM (inactive) | 12 µM (inactive) | 23.4 µM (inactive) | 12.1 | 5.18 µM (inactive) | 11.4 µM (inactive) | 10.5 µM (inactive) | 7.36 µM (inactive) | 23.8 µM (inactive) | 22.8 µM (inactive) | 12.1 µM (inactive) | 13.1 µM (inactive) | 23.9 µM (inactive) | 8.3 µM (inactive) | 12.3 µM (inactive) | 4.23 µM (inactive) | 19.5 µM (inactive) | 17.1 µM (inactive) | 19.9 µM (inactive)
CN(CCCCCl)P(=O)(OCc1ccc([N+](=O)[O-])o1)OC[C@H]1O[C@@H](n2cc(F)c(=O)[nH]c2=O)C[C@@H]1O (stereo not given in full) | 0.0236 µM (active) | 2.84 µM (inactive) | < 0.01 µM (active) | 0.995 µM (active) | 21.6 | 0.07 µM (active) | 1.04 µM (active) | 12.9 µM (inactive) | 0.583 µM (active) | 0.989 µM (active) | > 44.5 µM (inactive) | 4.34 µM (inactive) | 1.27 µM (inactive) | 0.0284 µM (active) | 0.0914 µM (active) | 17.1 µM (inactive) | 0.0702 µM (active) | 17.3 µM (inactive) | 1.79 µM (inactive) | 30.8 µM (inactive)
